Read-outs that look alike come from different tables or passages of the source.
Columns and labels:
[1] = Plasma protein binding (rapid equilibrium dialysis); type: in vitro ADME; conditions: pH 7.4, mouse plasma, 2 h at 37 °C
Protocol: Plasma protein binding was performed with rapid equilibrium dialysis (RED) device inserts containing a dialysis membrane with a molecular weight cut-off of 8000 Daltons. Inserts were placed in the single-use RED plate without prior preparation.
The test compound at a concentration of 5 μM was added to mouse plasma and dialyzed against phosphate-buffered saline (PBS, pH 7.4) for 2 h at 37 °C. Propranolol hydrochloride was used as a positive control (high PPB), and fluconazole was used as negative control (low PPB). After dialysis, the drug concentration in the buffer and plasma compartments was quantified by liquid chromatography and tandem mass spectrometry (LC-MS/MS) analysis.

[2] = target: recombinant P. falciparum PMX (Plasmodium falciparum, UniProt Q8IAS0); test: Recombinant P. falciparum PMX inhibition assay (fluorogenic substrate Rh2N); type: biochemical
recombinant P. falciparum PMX, sequence (Q8IAS0 222-573): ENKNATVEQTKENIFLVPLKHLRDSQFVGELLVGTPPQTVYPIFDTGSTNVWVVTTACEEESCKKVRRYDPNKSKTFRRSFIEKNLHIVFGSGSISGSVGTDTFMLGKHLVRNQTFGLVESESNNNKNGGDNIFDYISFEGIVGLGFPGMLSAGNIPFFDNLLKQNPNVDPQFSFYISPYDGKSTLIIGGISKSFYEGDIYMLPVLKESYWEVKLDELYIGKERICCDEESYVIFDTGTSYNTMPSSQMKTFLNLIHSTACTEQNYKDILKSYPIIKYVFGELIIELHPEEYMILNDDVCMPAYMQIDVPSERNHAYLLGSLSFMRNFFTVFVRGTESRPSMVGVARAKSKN
Protocol: The fluorescence of this peptide is quenched by the spatial proximity of the DABCYL/EDANS groups in the uncleaved peptide and is increased upon cleavage at the internal F–I bond. […] Control wells contained no inhibitor, and the plate was blanked against the substrate only in DB. […] All experiments were performed in duplicate.

[3] = system: maturation of RAP1, substrate of PMIX; test: Western blot of RAP1 maturation in treated schizonts; type: cell-based, P. falciparum; conditions: 20 nM, 44 h
Text: Figure 4 Macrocycle PMX inhibitors have no effect on intraerythrocytic parasite maturation but prevent egress and maturation of SUB1. […] Scale bar, 20 μm. (B) Simplified schematic of proteolytic maturation of the egress effector SUB1. Conversion of the precursor form to p54 is through autocatalytic removal[32] of the prodomain region (PD), whereas conversion of p54 to p47 is mediated by PMX.[15],[16],[33] (C) Left, Western blot analysis of P. falciparum 3D7 schizonts allowed to mature in the presence of the indicated macrocycle compounds (20 nM), showing defective SUB1 maturation in parasites treated with the indicated macrocycle compounds. Right, Western blot of the same extracts probed with a monoclonal antibody (mAb) specific to the rhoptry protein RAP1, which is a substrate for cleavage by the related P. falciparum protease PMIX. The compounds had no discernible effect on the maturation of RAP1. The results shown are typical of 3 independent experiments.
(§1) Synchronous parasite cultures were cultured from ring to schizont stage (∼44 h) in the presence of DMSO alone (0.04% v/v; control) or macrocycle compounds (20 nM final concentration). Schizonts were isolated by Percoll enrichment (still in the presence of the test compound), then either immediately frozen or further incubated in the absence of the drug but in the presence of C2 (1 μM) for 1 h at 37°C in the absence of added RBCs or for 3.5 h in the presence of added RBCs. The schizonts without added RBCs were then frozen too, and all schizont samples were then thawed into CHAPS–urea extraction buffer, subjected to sodium dodecyl sulfate-polyacrylamide gel electrophoresis (SDS-PAGE), and analyzed by Western blot, probing with antibodies against SUB1 or RAP1. For schizonts cultured in the presence of added RBCs, ring formation was assessed in two ways: cultures were examined microscopically by Giemsa stain of thin films and were also fixed with glutaraldehyde and processed for quantification of ring formation by flow cytometry as described above.

[4] = Liver microsomal metabolic stability; type: in vitro ADME, mouse
Protocol: Microsomal stability assays are performed as described elsewhere.[41] Test compounds and pooled mouse liver microsomes are incubated in potassium phosphate buffer in the presence of the cofactor NADPH at 37 °C. Reaction mixtures (700 μL) contain a final concentration of 5 μM test compound, 0.05% DMSO, 0.5 mg/mL microsomes, and ∼0.7–0.9 mM NADPH in 100 mM potassium phosphate buffer at pH 7.4. Reactions are terminated by the addition of 100 μL of the reaction mixture to 900 μL of acetonitrile after 0, 5, 15, 30, 45, and 60 min of incubation. Samples were centrifuged, and the resultant supernatant was analyzed by ultra-performance liquid chromatography–tandem mass spectrometry (UPLC-MS/MS). The amount of remaining compound is calculated and compared to the initial amount of test compound (zero time point). Verapamil is used as a positive control, and samples prepared without cofactor NADPH are used as a negative control (0 and 60 min). The in vitro metabolic stability parameters (half-life value (t1/2) and intrinsic clearance value (Clint)) are calculated from the slope of the Ln of concentration remaining vs the time curve.

[5] = Drug blood concentrations in PfalcHuMice during efficacy testing; type: in vivo; conditions: for total Cmin: PfalcHuMouse, 40 mg/kg p.o.
Protocol: The concentrations of drugs were measured in samples of peripheral blood (25 μL) taken at different times after the first dosing, mixed with 25 μL of Milli-Q H2O, and immediately frozen on a thermal block at −80 °C. The frozen samples were stored at −80 °C until analysis. Blood from control humanized mice was used for the preparation of standard curves, calibration, and quality control purposes. The drugs were extracted from 10 μL of lysates obtained by protein precipitation of blood samples using standard liquid–liquid extraction methods. The samples were analyzed by LC-MS/MS for quantification in a Waters Micromass UPLC-TQD (Waters, Manchester, U.K.). Blood concentration vs time was analyzed by non-compartmental analysis (NCA) using Phoenix WinNonlin vers.9.2 (Certara) or R or Excel (Microsoft), from which exposure-related values (tmax, Cmax, and AUC0–t) were estimated.

[6] = system: P. falciparum 3D7 parasites; test: Microscopy of synchronized P. falciparum cultures treated from ring stage (development and egress); type: cell-based; conditions: 20 nM
Protocol: Asexual blood-stage forms of P. falciparum strains 3D7 and Dd2 were maintained at 37 °C in an atmosphere of 1% O2, 5% CO2, and 94% N2 in human RBCs in RPMI 1640 medium containing AlbuMAX II (Thermo Fisher Scientific) and supplemented with 2 mM L-glutamine. The synchronization of parasite cultures was as described previously.[39] Briefly, this involved isolating mature schizont forms by centrifugation over cushions of 70% (v/v) isotonic Percoll (GE Healthcare, Life Sciences) and then allowing the parasites to undergo rupture in the presence of fresh RBCs for 2 h under gentle shaking conditions (100 rpm). Residual schizonts were then removed through a second Percoll separation, followed by treatment with 5% (w/v) sorbitol to finally obtain a highly synchronized preparation of newly invaded ring-stage parasites.
Growth stage progression and parasite morphology were also monitored by microscopic examination at selected time points using Giemsa-stained thin blood films.

[7] = system: SUB1 p54 to p47 conversion (PMX activity); test: Washout assay, SUB1 maturation by Western blot; type: cell-based, P. falciparum; conditions: 20 nM ∼44 h, C2 1 μM for 1 h
Protocol: The schizont cultures lacking added RBCs were supplemented with compound C2, which blocks the discharge of exonemes, the parasite secretory organelles in which PMX and SUB1 are stored before egress. The schizonts without added RBCs were sampled for Western blot analysis, while the schizont cultures containing RBCs were examined by microscopy and flow cytometry after a further 4 h in culture to quantify schizont rupture and new ring formation.
as §1

CCCN1CCCCCc2cccc(c2)C[C@@H]([C@H](O)CNC(C)(C)c2cccc(OC)c2)NC(=O)c2cccc(c2)C1=O [7k, (S)-4-((R)-1-Hydroxy-2-((2-(3-methoxyphenyl)propan-2-yl)amino)ethyl)-12-propyl-3,12-diaza-1,6(1,3)-dibenzenacyclotridecaphane-2,13-dione]
fraction unbound at 2 h, 5 µM [1]: 0.0027
IC50 ([2]; Table 3, read-out: PMX, nM (as listed in Table 3)): 0.4 ± 0.03 nM
improvement of PMX inhibitory potency ([2]; compared to 7a): 10 fold
IC50 ([2]; recombinant PMX, read-out: PMX, nM (IC50)): 0.4 ± 0.03 nM
maturation of RAP (PMIX substrate) [3]: do not affect PMIX activity at these concentrations
improvement of half-life in the microsomal stability test ([4]; compared to the acyclic analogue 6a): 3 fold
half-life at 1 h, 5 μM ([4]; pooled liver microsomes, pH 7.4, mouse liver microsomes, 5 μM): 16.9 min
microsomal CLint at 1 h, 5 μM ([4]; pooled liver microsomes, pH 7.4, mouse liver microsomes, 5 μM, read-out: microsomal stability CL(int)): 81.9 µL/min/mg
total Cmin ([5]; BID): 32 ng/mL
total Cmin ([5]; TID): 85 ng/mL
total Cmin ([5]; UID): 51 ng/mL
pharmacokinetic modeling of concentrations over the period of administration ([5]; plasma concentration at 71.0, 72.5, 73.0 and 78.0 hours post-treatment): rapid absorption with no accumulation
intraerythrocytic development of ring-stage parasites to schizont stage ([6]; 44 h): Development of ring-stage parasites to the multinucleated schizont stage occurred similarly in all cultures
schizont rupture (egress) and appearance of new rings ([6]; 44 h and extended incubation): schizont rupture and appearance of new rings did not occur
SUB1 p54 to p47 conversion after washout [7]: no conversion of SUB1 p54 to p47 occurred
